From the SangsterLogP compilation

Key:
[1] = method code SF-AS, from DOI: 10.1016/0039-9140(93)80165-n, PMID: 18965747; conditions: pH 2.0
[2] = not given; remark: listed apart in the source
[3] = from KURIHARA, Norio.; Fujita, Toshio. (1983). Composition of Partition Coefficients of Polychlorinated Hydrocarbons (Commemoration Issue Dedicated to Professor Yuzo Inouye on the Occasion of his …
[4] = method code SF-TN, from DOI: 10.2116/analsci.13.897; conditions: pH 2.0
[5] = not given; remark: listed apart in the source
[6] = method code SF, from DOI: 10.1021/bk-1995-0606.ch003
[7] = not given; remark: listed apart in the source
[8] = method code SF-AS, from DOI: 10.1021/jm0495273.s001, PMID: 15974600; conditions: pH 7.4
[9] = method code SF-AS, from Ganga, L. X. J. S., & Zun-Yaob, L. H. W. (2009). Determination of lgKow and QSPR Study on Some Fluorobenzene Derivatives. Jiegou Huaxue, 28(10).
[10] = method code SF-AS, from DOI: 10.1016/0223-5234(93)90135-2; conditions: pH 12.0
[11] = method code SF-TN, from DOI: 10.1085/jgp.71.1.93, PMID: 621494
[12] = not given; remark: listed apart in the source
[13] = method code SF, from Brown, J.; Yu, N.; Cory, M.; Bicknell, R.; Taylor, D. (1978). In vivo evaluation of the radiosensitizing and cytotoxic properties of newly synthesized electron-affinic drugs. 3, 206-211.
[14] = method code SF, from DOI: 10.2307/3575246, PMID: 7367588
[15] = method code SF, from DOI: 10.1016/j.tca.2016.07.020; conditions: pH 7.4
[16] = method code G-HPLC, from DOI: 10.1016/s0021-9673(01)94303-1
[17] = method code SF-GLC, from DOI: 10.1021/ac00241a023
[18] = method code SF-GLC, from Boikov, Yu.; Shibaev, V.; Gaidamaka, V.; V'yunov, K. (1989). Study of correlation between extraction characteristics of glycidyl ethers and theri structure. 62(1)177-179.
[19] = method code SF, from DOI: 10.1016/0005-2744(69)90103-x, PMID: 4387594
[20] = method code SF-HPLC, from DOI: 10.1016/0378-5173(83)90028-5
[21] = method code SF-GLC, from DOI: 10.1021/es00131a005
[22] = method code SF-RC, from DOI: 10.1016/s0969-8051(01)00233-5, PMID: 11518650
[23] = method code SF, from DOI: 10.1016/j.jiec.2010.03.003
[24] = method code SF-HPLC, from DOI: 10.1021/je049947x
[25] = not given; remark: listed apart in the source
[26] = method code SF-AS, from DOI: 10.1016/0891-5849(94)00112-w, PMID: 7744299; conditions: pH 7.5
[27] = method code SF-AS, from DOI: 10.1016/s0045-6535(00)00181-8, PMID: 11272912
[28] = not given; remark: listed apart in the source
[29] = not given; remark: listed apart in the source
[30] = not given; remark: listed apart in the source
[31] = not given; remark: listed apart in the source
[32] = method code SF-AS, from DOI: 10.1002/etc.5620181211
[33] = method code SF-CR+AS, from Korenman, I. (1982). The influence of substituents on the partition of phenols between water and organic solvents. Russ. J. Phys. Chem., 56(3)458-460.
[34] = method code SF-AS, from Kosanovic, D.; Dumanovic, D.; Jovanovic, J. (1988). Solubility in octanol And the octanol-water partition coefficients of some 4(5)- and 5-nitroimidazoles. 53(10)559-563.
[35] = method code SF, from Korenman, I. M.; Klyukvina, T. D. (1972). Extraction of methylfurfural from aqueous solutions. Zh. Prikl. Khim., 45(11)2697-2699.
[36] = method code SF-GLC, from DOI: 10.1271/bbb1961.46.2755
[37] = method code SF-HPLC, from DOI: 10.1080/02772248909357333
[38] = not given; remark: listed apart in the source
[39] = not given; remark: listed apart in the source
[40] = method code SF-AS, from DOI: 10.1016/0378-5173(93)90388-v
[41] = not given; remark: listed apart in the source
[42] = method code SF-AS, from PMID: 2551304; conditions: pH 7.4
[43] = method code SF-AS, from DOI: 10.1016/0378-5173(80)90061-7
[44] = not given; remark: listed apart in the source
[45] = method code SF, from Ganellin, C. R., & Durant, G. J. (1981). Histamine H2-receptor agonists and antagonists. Burgers Medicinal Chemistry, 3, 487-552.; conditions: pH 11.8
[46] = not given; remark: listed apart in the source
[47] = method code SF-AS, from DOI: 10.1016/0003-9861(82)90097-2, PMID: 6284047; conditions: pH 7.4
[48] = method code SF-AS, from PMID: 2160644
[49] = not given; remark: listed apart in the source
[50] = method code SF-GLC, from DOI: 10.1002/etc.5620080910
[51] = method code SF-RC, from DOI: 10.1002/jps.2600800111, PMID: 2013848
[52] = method code SF-GLC, from DOI: 10.1002/jps.2600620103, PMID: 4734195
[53] = method code SF-TN, from Korenman, I M.; Gurevich, N.; Kulagina, G. (1973). Extraction of certain n-alkylamines from aqueous solutions. Zh. Prikl. Khim., 46(3)726-728.
[54] = method code SF-HPLC, from DOI: 10.1016/s0021-9673(01)88640-4

**Q.** Which logD [1] does the source give for `CC(C)(C)C(=O)O` here?
**A.** The logD was 1.42.

**Q.** Which logP does the source give for `S=C=Nc1ccc(Br)cc1` here?
**A.** Its logP is 4.03.

**Q.** Which logP [2] does the source give for `Nc1cc(N=O)ccc1O` here?
**A.** The logP was 0.03.

**Q.** Which logP [3] does the source give for `ClC1C=CCC(Cl)C1Cl` (stereo not given) here?
**A.** The logP was 2.84.

**Q.** For `O=C(O)C1CCCC1`, which logD [4] is on record?
**A.** Its logD is 1.52.

**Q.** With `COCC(C)OC(C)=O` (stereo not given) as the compound, how does the logP [5] read?
**A.** Its logP is 0.56.

**Q.** With `CCc1ccc[nH]1` as the compound, how does the logP [6] read?
**A.** The logP was 1.59.

**Q.** Which logP [7] does the source give for `Oc1ccc(O)cc1` here?
**A.** The logP was 0.61.

**Q.** With `Nc1nc(S)c2[nH]cnc2n1` as the compound, how does the logD [8] read?
**A.** Its logD is -0.16.

**Q.** For `Fc1ccc(F)cc1`, which logP [9] is on record?
**A.** The logP was 2.26.

**Q.** Which logD [10] does the source give for `NCCc1nccs1` here?
**A.** The logD was 0.16.

**Q.** Which logP [11] does the source give for `CCCCC(O)C(=O)O` (stereo not given) here?
**A.** The logP was 0.81.

**Q.** With `Oc1ccc(O)c(Cl)c1` as the compound, how does the logP [12] read?
**A.** The logP was 1.4.

**Q.** For `CC(O)Cn1ccnc1[N+](=O)[O-]` (stereo not given), which logP [13] is on record?
**A.** Its logP is -0.16.

**Q.** With `Cn1c(C(O)CO)cnc1[N+](=O)[O-]` (stereo not given) as the compound, how does the logP [14] read?
**A.** The logP was -0.89.

**Q.** With `NC(=S)c1ccncc1` as the compound, how does the logD [15] read?
**A.** Its logD is 0.61.

**Q.** With `CCCCBr` as the compound, how does the logP [16] read?
**A.** The logP was 2.75.

**Q.** Which logP [17] does the source give for `Clc1cccc(Cl)c1Cl` here?
**A.** Its logP is 4.05.

**Q.** Which logP [18] does the source give for `CCOCC1CO1` (stereo not given) here?
**A.** The logP was 0.27.

**Q.** With `Nc1ccccc1F` as the compound, how does the logP [19] read?
**A.** The logP was 1.26.

**Q.** Which logP [20] does the source give for `O=[N+]([O-])O[C@@H]1CO[C@H]2[C@@H]1OC[C@@H]2O` here?
**A.** The logP was -0.15.

**Q.** Which logP [21] does the source give for `Clc1ccc(Cl)c(Cl)c1Cl` here?
**A.** The logP was 4.6.

**Q.** For `CN(C)CCCF`, which logP [22] is on record?
**A.** Its logP is 1.27.

**Q.** For `COC(C)(C)C`, which logP [23] is on record?
**A.** Its logP is 1.41.

**Q.** With `CC(C)Nc1nc(N)nc(Cl)n1` as the compound, how does the logP [24] read?
**A.** Its logP is 1.49.

**Q.** Which logP [25] does the source give for `O=[N+]([O-])c1cc(Cl)ccc1Cl` here?
**A.** The logP was 3.09.

**Q.** Which logD [26] does the source give for `O=Nc1ccccc1` here?
**A.** Its logD is 1.86.

**Q.** With `O=Cc1cc(Br)ccc1O` as the compound, how does the logP [27] read?
**A.** The logP was 2.5.

**Q.** Which logP [28] does the source give for `Oc1c(Br)c(Br)c(Br)c(Br)c1Br` here?
**A.** Its logP is 5.3.

**Q.** For `CON=C(C#N)C(=O)NCC(=O)O`, which logP [29] is on record?
**A.** Its logP is -0.58.

**Q.** For `Cc1nccn1C`, which logP [30] is on record?
**A.** Its logP is -0.04.

**Q.** Which logP [31] does the source give for `Nc1cccc(O)c1` here?
**A.** Its logP is 0.28.

**Q.** With `Cc1cccnc1N` as the compound, how does the logP [32] read?
**A.** The logP was 0.01.

**Q.** With `Nc1cc([N+](=O)[O-])cc(Cl)c1O` as the compound, how does the logP [33] read?
**A.** Its logP is 1.53.

**Q.** With `CC(C)c1nc([N+](=O)[O-])c[nH]1` as the compound, how does the logP [34] read?
**A.** The logP was 0.9.

**Q.** For `Cc1ccc(C=O)o1`, which logP [35] is on record?
**A.** Its logP is 0.67.

**Q.** Which logP [36] does the source give for `CCCS(=O)(=O)CCC` here?
**A.** The logP was 0.39.

**Q.** With `COc1nn(CSP(=S)(OC)OC)c(=O)s1` as the compound, how does the logP [37] read?
**A.** Its logP is 2.22.

**Q.** Which logP [38] does the source give for `CNC(=O)N(C)c1nnc(C(F)(F)F)s1` here?
**A.** The logP was 1.46.

**Q.** For `CCOCCO`, which logP [39] is on record?
**A.** Its logP is -0.28.

**Q.** With `CC1CCC(=O)N1` (stereo not given) as the compound, how does the logP [40] read?
**A.** Its logP is -0.1.

**Q.** For `Nc1cc(Cl)c(S(N)(=O)=O)cc1S(N)(=O)=O`, which logP [41] is on record?
**A.** Its logP is -0.56.

**Q.** For `Nc1ccncc1F`, which logD [42] is on record?
**A.** The logD was 0.63.

**Q.** With `CCOC(=O)CCCO` as the compound, how does the logP [43] read?
**A.** Its logP is 0.43.

**Q.** Which logP [44] does the source give for `Clc1cccc(C(Cl)(Cl)Cl)n1` here?
**A.** The logP was 3.41.

**Q.** With `NCCc1c[nH]cn1` as the compound, how does the logD [45] read?
**A.** Its logD is -0.7.

**Q.** With `COC(=O)c1ccco1` as the compound, how does the logP [46] read?
**A.** The logP was 1.08.

**Q.** For `CC1(C)CCC=[N+]1[O-]`, which logD [47] is on record?
**A.** Its logD is -1.03.

**Q.** Which logP [48] does the source give for `O=C(O)c1cc(=O)[nH]c(=O)[nH]1` here?
**A.** The logP was -0.83.

**Q.** For `CC(CCl)OC(C)CCl` (stereo not given), which logP [49] is on record?
**A.** The logP was 2.48.

**Q.** Which logP [50] does the source give for `O=[N+]([O-])c1ccc(Cl)cc1Cl` here?
**A.** Its logP is 3.05.

**Q.** With `Nc1ccc(S(=O)(=O)O)cc1` as the compound, how does the logP [51] read?
**A.** Its logP is -2.16.

**Q.** With `CC(C)C(C)O` (stereo not given) as the compound, how does the logP [52] read?
**A.** The logP was 1.28.

**Q.** Which logP [53] does the source give for `CCCCN` here?
**A.** Its logP is 0.74.

**Q.** Which logP [54] does the source give for `N#CN=[N+]([O-])c1cnccn1` here?
**A.** Its logP is 0.1.
